Source: the METLIN SMRT retention time set (Domingo-Almenara et al. 2019)
One block for each molecule: values may come before it.

Test: gradient 5% acetonitrile 3 min, to 50% in 2 min, to 85% in 15 min, held 3 min, 100 µL/min
Conditions: column: Zorbax Extend-C18 2.1 x 50 mm; eluents: water / acetonitrile, 0.1% formic acid
Procedure, shortened: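 Pure standards were run in mixtures of ~100 molecules by HPLC coupled to a quadrupole time-of-flight mass spectrometer. The column was a Zorbax Extend-C18 (2.1 × 50 mm, 1.8 μm) at 100 μL/min, with water and acetonitrile each containing 0.1% formic acid, in positive and negative ionization mode. Dead and dwell volumes were 40 μL and 900 μL. Retention time was taken from computationally picked adduct peaks, each manually inspected, with data collected over 3 months.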

RP-LC retention time: 774 s
Compound: O=C(Cn1cc(-c2nnco2)c2ccccc21)NCc1cccc(Br)c1

RP-LC retention time: 841 s
Compound: CC1(C)CC(=O)c2c(nc(N3CCN(c4ccccn4)CC3)nc2Nc2ccccc2)C1

RP-LC retention time: 954 s
Compound: Cc1ccc(S(=O)(=O)N2CCC(n3c(-c4ccco4)nc4cccnc43)C2)cc1F (stereo not given)

RP-LC retention time: 899 s
Compound: CCCn1cc(CCNS(=O)(=O)c2ccc(Cl)s2)c2cccnc21

RP-LC retention time: 863 s
Compound: Cc1ccc(S(=O)(=O)N2CCC(n3c(-c4ccco4)nc4cccnc43)C2)cc1 (stereo not given)

RP-LC retention time: 759 s
Compound: COCCNC(=O)c1nccnc1NC(=O)c1ccc(C)cc1

RP-LC retention time: 787 s
Compound: COc1ccc(S(=O)(=O)C(CNC(=O)c2ccc3c(c2)OCO3)c2cccs2)cc1 (stereo not given)

RP-LC retention time: 777 s
Compound: COC(=O)c1cccc(Nc2ncccc2S(N)(=O)=O)c1

RP-LC retention time: 1090 s
Compound: CCCCOc1cccc(C(=O)N(Cc2ccc(Br)o2)C2CCS(=O)(=O)C2)c1 (stereo not given)

RP-LC retention time: 785 s
Compound: COc1ccc(C(=O)Nc2nc(-c3ccc4c(c3)N(C)C(=O)CO4)cs2)cc1OC

RP-LC retention time: 648 s
Compound: Cc1nnc(-c2ccc3ccn(CC(=O)NCCc4ccc(S(N)(=O)=O)cc4)c3c2)o1

RP-LC retention time: 1250 s
Compound: CC(C)Cn1c(=O)c2ccccc2n(Cc2nc(-c3cccc(Cl)c3)no2)c1=O

RP-LC retention time: 621 s
Compound: CCCn1cc(CCNC(=O)C2CC2)c2cccnc21

RP-LC retention time: 683 s
Compound: Cc1ccc(C(CNC(=O)c2cc(-c3ccccc3)on2)N(C)C)o1 (stereo not given)

RP-LC retention time: 842 s
Compound: COc1ccc(NC(=O)C2(C)Oc3cccnc3N(C)C2=O)cc1Cl (stereo not given)

RP-LC retention time: 1010 s
Compound: CCNC(=O)c1c(C)c(-c2ccccc2)n(C)c1C

RP-LC retention time: 936 s
Compound: COc1ccc(-c2nnc(-c3nc(N4CCC5(CC4)OCCO5)c4ccccc4n3)o2)cc1

RP-LC retention time: 1040 s
Compound: CCC(c1cccs1)N1C(=O)[C@H]2CN(S(=O)(=O)c3cccc(C)c3)C[C@H]2C1=O (stereo not given in full)

RP-LC retention time: 930 s
Compound: Cc1ccc(CNC(=O)Cn2nc3cc(-c4ccccc4)nc(C)n3c2=O)cc1

RP-LC retention time: 817 s
Compound: O=C(Cn1cc(-c2nnco2)c2ccccc21)NCc1cccc(Cl)c1

RP-LC retention time: 1260 s
Compound: O=C(Nc1nc(-c2ccc(-c3ccccc3)cc2)cs1)C1CCCC1

RP-LC retention time: 1100 s
Compound: CCc1nc(-c2cccc(-c3noc(CNC(=O)Cc4ccc(Cl)cc4)n3)c2)cs1

RP-LC retention time: 1230 s
Compound: CCc1ccc(NC(=O)C2CCCN(c3nc4ccccc4nc3C(F)(F)F)C2)cc1 (stereo not given)

RP-LC retention time: 610 s
Compound: COCCN1C(=O)c2cccn2CC1CNC(=O)c1cnc(C)cn1 (stereo not given)

RP-LC retention time: 1290 s
Compound: CCC(C)n1c(=O)c2ccccc2n(Cc2nc(-c3ccc(C(F)(F)F)cc3)no2)c1=O (stereo not given)

RP-LC retention time: 1140 s
Compound: Fc1ccccc1-c1noc(-c2nc(-c3ccccc3F)no2)n1

RP-LC retention time: 705 s
Compound: Cn1c(CCNC(=O)c2ccc(C(C)(C)C)cc2)nc2cccnc21

RP-LC retention time: 918 s
Compound: CC1CN(CC(=O)N2CCN(c3ncccn3)CC2)c2ccccc2S1 (stereo not given)

RP-LC retention time: 782 s
Compound: O=C(Nc1ccccc1)N1CCC(n2cnc3ccc(Cl)cc3c2=O)CC1

RP-LC retention time: 744 s
Compound: COc1ccc(-c2nc3ncccn3c2Nc2ccc(C)cc2)cc1

RP-LC retention time: 832 s
Compound: Cc1ccc(NC(=O)c2cn(-c3cc(N(C)C)ncn3)cn2)cc1

RP-LC retention time: 780 s
Compound: Cc1ccc(CNC(=O)C2(C)Cn3cnc(C(=O)NCc4ccccc4F)c3C(=O)N2C2CC2)cc1 (stereo not given)

RP-LC retention time: 873 s
Compound: COc1ccc(CN2C=C(C(=O)OCc3noc(C)n3)C(C)=NS2(=O)=O)cc1

RP-LC retention time: 648 s
Compound: O=C(NCCCOc1cccc2cccnc12)c1cc(=O)c2ccccc2o1

RP-LC retention time: 1140 s
Compound: O=c1c2cc(-c3cccc4ccccc34)nn2ccn1Cc1nc(-c2ccccc2)no1

RP-LC retention time: 789 s
Compound: O=C(c1ccccc1Cl)N1CCN(c2cc(-c3cccs3)[nH]n2)CC1

RP-LC retention time: 1020 s
Compound: COc1ccc(-n2c(=O)n(C)c(=O)c3cc(C(=O)Nc4cccc(OC)c4)cnc32)cc1

RP-LC retention time: 749 s
Compound: CC(=O)c1ccc(NC(=O)CCc2c(C)nn(-c3cc(N(C)C)ncn3)c2C)cc1

RP-LC retention time: 1250 s
Compound: Cc1ccc(-c2nc(-c3cccc(-c4ccnn4C)c3)no2)cc1F

RP-LC retention time: 672 s
Compound: CN1CCN(C(=O)C2CCN(c3nc4ccc(-c5ccccc5)nc4s3)CC2)CC1

RP-LC retention time: 677 s
Compound: Cc1ccc2nc3c(C(=O)O)cccn3c(=O)c2c1

RP-LC retention time: 664 s
Compound: CNc1nc(Nc2ccccc2C)nc2ccccc12

RP-LC retention time: 866 s
Compound: O=C(NCCc1c[nH]c2ccccc12)C1COc2ccccc2O1 (stereo not given)

RP-LC retention time: 1070 s
Compound: O=C(NCc1ccco1)c1c(O)c2cccnc2n(-c2cccc(F)c2)c1=O

RP-LC retention time: 752 s
Compound: O=C(CCc1nc2cccnc2n1Cc1cccs1)NCCc1c[nH]c2ccccc12

RP-LC retention time: 763 s
Compound: O=C(CN1C(=O)COc2ccc(C(=O)N3CCc4ccccc4C3)cc21)N1CCCC1

RP-LC retention time: 1040 s
Compound: COc1cc(OC)cc(C(=O)Nc2nc(-c3ccc4c(c3)N(C)C(=O)C(C)O4)cs2)c1 (stereo not given)

RP-LC retention time: 1090 s
Compound: CCOc1cccc(-c2noc(Cn3nc(-c4cccc(OC)c4)ccc3=O)n2)c1

Further lines, the molecule ahead of its results:

Compound: Cc1cc(=O)n(CC(=O)Nc2cccc(C(F)(F)F)c2)c(N2CCOCC2)n1
RP-LC retention time: 754 s

Compound: COc1cc(NC(=O)N2CCC3(CC2)N=C(c2cccc(F)c2)C(=O)N3)cc(OC)c1
RP-LC retention time: 822 s

Compound: Cc1cnn(Cc2cc(C(=O)N3C[C@@H](CO)[C@H](N(C)C)C3)no2)c1
RP-LC retention time: 566 s

Compound: O=C(NC1CCCCC1)N1CCC(c2noc(-c3ccncc3)n2)C1 (stereo not given)
RP-LC retention time: 727 s

Compound: CCCn1nnnc1NCc1ccc2c(c1)n(C)c(=O)n2C
RP-LC retention time: 638 s

Compound: NC(=O)C1(c2ccccc2Cl)CC1
RP-LC retention time: 692 s

Compound: Cn1nc(C2CCCNC2)n(Cc2ccccc2)c1=O (stereo not given)
RP-LC retention time: 556 s

Compound: Cc1cc(C(F)(F)F)nn1CC(=O)NCCn1c(C)cnc1C1CCC1
RP-LC retention time: 634 s

Compound: COc1ccc2c(c1)C1(CCN(S(=O)(=O)c3cc(F)ccc3C)C1)C(=O)N2C (stereo not given)
RP-LC retention time: 997 s

Compound: Cc1ccc2c(c1)N(Cc1nc(-c3ccc(OC(F)(F)F)cc3)no1)C(=O)CO2
RP-LC retention time: 1210 s

Compound: CCCc1noc(-c2ccc(-n3ncc(C(=O)N4CCCC(C)C4)c3C)nc2)n1 (stereo not given)
RP-LC retention time: 1130 s

Compound: O=C(CSc1nnc2c3sc(N4CCCC4)nc3ncn12)NC1CCCCC1
RP-LC retention time: 767 s

Compound: COc1ccc(-c2nc(C3CC(=O)N(c4ccc(C)cc4)C3)no2)c(OC)c1 (stereo not given)
RP-LC retention time: 939 s

Compound: CC(=O)N1CCN(c2nc(-c3ccncc3)nc3c2CCC3)CC1
RP-LC retention time: 576 s

Compound: COc1ccc(CCNC(=O)C2CCCN(S(=O)(=O)c3ccc(OC)c(C)c3)C2)cc1 (stereo not given)
RP-LC retention time: 891 s

Compound: CC(C)Cc1cc(-c2nn3c(-c4cccc(Cl)c4)nnc3s2)n[nH]1
RP-LC retention time: 1080 s

Compound: COc1cccc(C(=O)N2CCN=C2N2CCCC2)c1OC
RP-LC retention time: 614 s

Compound: CC(C)C(=O)N1CCC2(CC1)NCc1ccccc1-n1ccnc12
RP-LC retention time: 574 s

Compound: COc1ccc(CNC(=O)C2(C)CCN(C(=O)Nc3cccc(SC)c3)CC2)cc1
RP-LC retention time: 845 s

Compound: CCc1nc2c(=O)n(CC(=O)N3CCCC3)nc(C)c2s1
RP-LC retention time: 620 s

Compound: Cc1ccc(C(=O)Nc2ccc(N3CCN(C4CCCC4)C3=O)nc2)cc1N1CCCC1=O
RP-LC retention time: 686 s

Compound: CN(CC1CCOC1)C(=O)c1cc(F)ccc1Cl (stereo not given)
RP-LC retention time: 704 s

Compound: O=C1NCCCn2cc(S(=O)(=O)N3CCCCCC3)cc21
RP-LC retention time: 661 s

Compound: COc1ccc(-c2noc(CN3C(=O)COc4ccc(C)cc43)n2)cc1OC
RP-LC retention time: 934 s

Compound: O=C(Nc1cc(F)ccc1F)C1CCN(c2ccc(=O)n(-c3ccc(F)cc3)n2)CC1
RP-LC retention time: 874 s

Compound: COCC(C)(O)CNC(=O)c1ccc2nsnc2c1 (stereo not given)
RP-LC retention time: 606 s

Compound: CCOc1ccc(CNC(=O)CC2CCN(C(=O)c3[nH]c(C)c(C(=O)OC)c3C)CC2)cc1
RP-LC retention time: 750 s

Compound: CN1C(=O)[C@H]2CN(Cc3ccccc3)C[C@H]2C1=O
RP-LC retention time: 546 s

Compound: CC(=O)N1CCCSc2ccc(S(=O)(=O)N3CCN(c4cccc(C)c4)C(C)C3)cc21 (stereo not given)
RP-LC retention time: 982 s

Compound: COc1ccc(C2OC(c3cc(OC)c(OC)c(OC)c3)=NN2C(C)=O)c(OC)c1 (stereo not given)
RP-LC retention time: 885 s

Compound: O=S(=O)(c1ccc(-c2nnc(C3CC3)o2)o1)N1CCN(c2ccccc2)CC1
RP-LC retention time: 971 s

Compound: COc1cccc2c1OC1(C)CC2C(S(=O)(=O)c2ccc(C)c(C)c2)C(=O)N1 (stereo not given)
RP-LC retention time: 888 s

Compound: Cc1cc(F)ccc1NC(=O)Cn1c(C)cc(-c2nnc(C3CCC3)o2)c1C
RP-LC retention time: 934 s

Compound: COc1cccc(Cn2nnc(C(=O)O)c2C)c1
RP-LC retention time: 666 s

Compound: COc1ccc(Nc2nccc(C3CCCN(C(=O)C4CCCCC4)C3)n2)cc1 (stereo not given)
RP-LC retention time: 997 s

Compound: Cc1nc(-c2csc(S(=O)(=O)N3CCC(C(=O)N4CCc5ccccc5C4)CC3)c2)no1
RP-LC retention time: 1050 s

Compound: O=C(C1CCN(S(=O)(=O)N2CCOCC2)CC1)N1CCC(c2nc(C3CCOCC3)no2)C1 (stereo not given)
RP-LC retention time: 656 s

Compound: COc1cc(NC(=O)Cn2c(C)cc(-c3nnc(C4CC4)o3)c2C)cc(OC)c1
RP-LC retention time: 829 s

Compound: CCNC(=O)c1ccc2c(c1)CCN2C(=O)CC
RP-LC retention time: 651 s

Compound: Cc1ccc(CNC(=O)C2(C)CN(S(C)(=O)=O)CC(=O)N2CCC(C)C)cc1 (stereo not given)
RP-LC retention time: 865 s

Compound: CCCNC(=O)C1CCCN(c2cnc3nc(CC)c(CC)nc3c2)C1 (stereo not given)
RP-LC retention time: 755 s

Compound: NC(=O)Cn1c(Cc2ccccc2)nc2ccccc21
RP-LC retention time: 522 s
